Results published in patent EP1144412B1, “IMMUNOSUPPRESSIVE EFFECTS OF PTERIDINE DERIVATIVES” (4 AZA Bioscience nv, priority 1998, dated 2000).
Where two headings read alike, the source gives them in different places.

Tests used:
[1] = tested on: Highly purified T cells; experiment: T cell proliferation induced by anti-CD28 mAb + PMA (BrdU incorporation); assay type: cell-based, Human; conditions: for IC50: Homo sapiens, T-cell
Excerpt: (§1) Various models may be used for testing an immunosuppressive effect. In vivo, for example, different transplantation models are available. They are strongly influenced by different immunogenicities, depending on the donor and recipient species used and depending on the nature of the transplanted organ. The survival time of transplanted organs can thus be used to measure the suppression of the immune response. In vitro, there exist also various models. The most used are lymphocyte activation tests. Usually activation is measured via lymphocyte proliferation. Inhibition of proliferation thus always means immunosuppression under the experimental conditions applied. There exist different stimuli for lymphocyte activation: • coculture of lymphocytes of […] (MLR = mixed lymphocyte reaction): lymphocytes expressing different minor and major antigens of the HLA-DR type (= alloantigens) activate each other non-specifically. • CD3 assay: here there is an activation of the T-lymphocytes via an exogenously added antibody (OKT3). This antibody reacts against the CD3 molecule located on the lymphocyte membrane. This molecule has a costimulatory function. […] This molecule is also located on the lymphocyte membrane, and delivers strong costimulatory signals.
(§2) T cells were purified by removing non-T cells. Briefly,monocytes were removed by cold agglutination. The resulting lymphoid cells were further purified by a cell enrichment immunocolumn [Cellect Human T (Biotex, Edmonton, Alberta, Canada)] by a process of negative selection.
(§3) Measurements of T cell proliferations induced by anti-CD3 mAb + PMA or anti-CD28 mAb + PMA
(§4) Highly purified T cells (10^6/ml) were stimulated by immobilized anti-CD3 àr anti-CD28 mAb in the presence of PMA. Anti-CD3 mAb (CLB-CD3; CLB, Amsterdam, The Netherlands) were fixed on the 96-microwell plates by incubating the wells with 50 µl of mAb solution (1/800 dilution in culture medium). Anti-CD28 mAb (CLB-CD28; CLB, Amsterdam, The Netherlands) 50 µl (1/650 dilution in culture medium) was added directly to the wells. Further, 20 µl PMA (Sigma, St. Louis, MO, USA) solution (final concentration: 0.5 ng/ml) was added. Subsequently, 20 µl of immunosuppressants were added by serial dilution in triplicate wells. Finally 100 µl of the T cell suspension (10^6/ml) was added. After 48-hour incubation at 37EC in 5% CO2 20 Φl BrdU (100 ΦM solution) (Cell Proliferation Elisa, Boehringer-Mannheim Belgium) was added to each well. After a further overnight incubation the T cell proliferation was measured using a colorimetric immunoassay for qualification of cell proliferation based on measurements of the incorporation of BrdU during DNAsynthesis. The optical density (OD) was measured by a Behring EL311 plate reader at 450 nm (reference wavelength: 690 nm). The percent suppression of proliferation by drugs was counted using the formula: Per cent inhibition =((OD + drugs) - (OD Cult. Med.))/((OD - drugs) - (OD Cult. Med.))x 100 [formula]

[2] = tested on: Highly purified T cells; experiment: T cell proliferation induced by anti-CD3 mAb + PMA (BrdU incorporation); assay type: cell-based, Human; conditions: for IC50: Homo sapiens, T-cell
Excerpt: as §1, §2, §3, §4

[3] = tested on: Peripheral blood mononuclear cells (PBMC); experiment: Mixed lymphocyte reaction (MLR), [3H]-thymidine incorporation; assay type: cell-based; conditions: Homo sapiens
Excerpt: as §1
Peripheral blood mononuclear cells (PBMC) were isolated from heparinized peripheral blood by density gradient centrifugation over Lymphoprep (Nycomed, Maorstua, Norway). Allogeneic PBMC or EBV-transformed human B cells [RPMI1788 (ATCC name CCL156)] which strongly express B7-1 and B7-2 were used as stimulator cells after irradiation with 30 Gy. MLR was performed in triplicate wells. After 5 days incubation at 37EC, 1 µCi [^3H]-thymidine was added to each cup. After a further 16 hours incubation, cells were harvested and counted in a β-counter.
The percent suppression of proliferation by drugs was counted using the formula Percent inhibition =((cpm + drugs) - cpm Cult. Med)/((cpm - drugs) - cpm Cult. Med.)x 100 [formula]

[4] = Table IV, known pteridine derivatives, IC50 subranges, read-out: aCD28
[5] = Table IV, known pteridine derivatives, IC50 subranges, read-out: aCD3
[6] = Table IV, known pteridine derivatives, IC50 subranges, read-out: MLR
[7] = Table II, read-out: IC50 in µM of pteridine derivative aCD28
[8] = untitled structure table, no unit printed there, same values in Table II as IC50 in µM, read-out: aCD28
[9] = Table II, read-out: IC50 in µM of pteridine derivative ACD3
[10] = untitled structure table, no unit printed there, same values in Table II as IC50 in µM, read-out: aCD3
[11] = Table II, read-out: IC50 in µM of pteridine derivative MLR
[12] = untitled structure table, no unit printed there, same values in Table II as IC50 in µM, read-out: MLR

Compound	IC50 [1, 7]	IC50 [1, 8]	IC50 [2, 9]	IC50 [2, 10]	IC50 [3, 11]	IC50 [3, 12]	other results
CCCOCc1cnc2nc(N)nc(N)c2n1 [CH2 O CH2CH2CH3, reference compound]							IC50 [1, 4]: > 151 µM; IC50 [2, 5]: > 151 µM; IC50 [3, 6]: > 151 µM
COc1ccc(-c2cnc3nc(N)nc(N(C)C)c3n2)cc1OC [Compound 59, 2-amino-4-dimethylamino-6-(3,4-dimethoxyphenyl)pteridine]							IC50 ([1]; untitled structure table, IC50 subranges, read-out: aCD28): 1 to 15 µM; IC50 ([2]; untitled structure table, IC50 subranges, read-out: aCD3): 1 to 15 µM; IC50 ([3]; untitled structure table, IC50 subranges, read-out: MLR): < 1 µM
COCCOCc1cnc2nc(N)nc(N)c2n1 [Compound 17, 2,4-diamino-6-methoxyethoxymethyl pteridine]	18 µM	18 µM	180 µM	180 µM	> 200 µM	> 200 µM	
CCN(CC)c1nc(N)nc2ncc(-c3ccc(OC)c(OC)c3)nc12 [Compound 24, 2-amino-4-diethylamino-6-(3,4-dimethoxyphenyl) pteridine]	0.1 µM	0.1 µM	0.5 µM	0.5 µM	0.08 µM	0.08 µM	
CCCCCOc1nc(N)nc2ncc(C=Cc3ccccc3)nc12 [Compound 1, 2-amino-4-pentoxy-6-styrylpteridine]	80 µM	80 µM	110 µM	110 µM	15 µM	15 µM	
COc1ccc(-c2cnc3nc(N)nc(N)c3n2)cc1 [Compound 8, 2,4-diamino-6-(4-methoxyphenyl)pteridine]	22 µM	22 µM	125 µM	125 µM	150 µM	> 150 µM	
CCCN(CCC)c1nc(N)nc2ncc(-c3ccc(Cl)cc3)nc12 [Compound 30, 2-amino-4-dipropylamino-6-(4-chlorophenyl)pteridine]	6.7 µM	6.7 µM	9.7 µM	9.7 µM	13 µM	13 µM	
CSCc1cnc2nc(N)[nH]c(=O)c2n1 [CH2S CH3, reference compound]							IC50 [1, 4]: > 151 µM; IC50 [2, 5]: > 151 µM; IC50 [3, 6]: > 151 µM
CCCCCOc1nc(N)nc2ncc(C(Br)C(Br)c3ccccc3)nc12 (stereo not drawn) [Compound 2, 2-amino-4-n-pentoxy-6-(1,2-dibromo-2-phenylethyl)pteridine]	12 µM	12 µM	4 µM	4 µM	12 µM	12 µM	
COc1ccc(-c2cnc3nc(N)nc(N4CCOCC4)c3n2)cc1OC [Compound 36, 2-amino-4-morpholino-6-(3,4-dimethoxyphenyl)pteridine]	0.3 µM	0.3 µM	0.4 µM	0.4 µM	0.1 µM	0.1 µM	
Nc1nc(NCCO)nc2ncc(-c3ccccc3)nc12 [Compound 10, 2-hydroxyethylamino-4-amino-6-phenylpteridine]	125 µM	125 µM	125 µM	125 µM	125 µM	125 µM	
COc1ccc(-c2cnc3nc(N)nc(N(Cc4ccccc4)Cc4ccccc4)c3n2)cc1 [Compound 27, 2-amino-4-dibenzylamino-6-(4-methoxyphenyl) pteridine]	15 µM	15 µM	20 µM	20 µM	50 µM	50 µM	
C=CC[C@@H]1/C=C(\C)C[C@H](C)C[C@H](OC)[C@H]2O[C@@](O)(C(=O)C(=O)N3CCCC[C@H]3C(=O)O[C@H](/C(C)=C/[C@@H]3CC[C@@H](O)[C@H](OC)C3)[C@H](C)[C@@H](O)CC1=O)[C@H](C)C[C@@H]2OC [FK506, tacrolimus, reference compound]							activity in the anti-CD28 + PMA test [1]: not suppressive; activity in the anti-CD3 + PMA test [2]: only active; IC50 ([2]; Table III, comparison immunosuppressants, read-out: IC50 aCD3): 0.001 µM; IC50 ([3]; Table III, comparison immunosuppressants, read-out: IC50 MLR): 0.001 µM
CCCN(CCC)c1nc(N)nc2ncc(-c3ccccc3)nc12 [Compound 29, 2-amino-4-dipropylamino-6-phenylpteridine]	25 µM	25 µM	25 µM		15 µM	15 µM	
Cc1ccc(-c2cnc3nc(NCCO)nc(N)c3n2)cc1 [Compound 11, 2-hydroxyethylamino-4-amino-6-(4-tolyl)pteridine]	160 µM	160 µM	200 µM	200 µM	> 200 µM	> 200 µM	
COc1nc2nc(N)nc(OC)c2nc1C=Cc1ccccc1 [Compound 3, 2-amino-4-methoxy-6-styryl-7-methoxypteridine]	100 µM	100 µM	160 µM	160 µM	25 µM	25 µM	
COc1ccc(-c2cnc3nc(N)nc(N4CCNCC4)c3n2)cc1OC [Compound 49, 2-amino-4-piperazino-6-(3,4-dimethoxyphenyl)pteridine]	4.5 µM	4.5 µM	14.8 µM	14.8 µM	2.8 µM	2.8 µM	
